{"source": "patent US9248124B2", "about": "“Use of inhibitors of IκB kinase for the treatment of cancer” (Millennium Pharmaceuticals, Inc., priority 2001, dated 2016)", "assay_type_in_all_cases": "cell-based, human", "key": {"MM.1S cells": {"test_system": "MM.1S cells", "assay": "DNA synthesis ([3H]-TdR uptake) in MM.1S cells with Dex, IL-6, Thal or IMiD3", "details": "48 h", "description": "Proliferation was measured as previously described (Hideshima et al., Blood 96:2943 (2000)). MM cells (3×10^4 cells/well) were incubated in 96-well culture plates (Costar, Cambridge, Mass.) in the presence of media, PS-341, compound 1 and/or Dex or recombinant human IL-6 (Genetics Institute, Cambridge, Mass.) for 48 h at 37° C. DNA synthesis was measured by [^3H]-thymidine ([^3H]-TdR, NEN Products, Boston, Mass.) uptake. Cells were pulsed with [^3H]TdR (0.5 μCi/well) during the last 8 h of 48 h cultures. All experiments were performed in triplicate."}, "[1]": {"test_system": "p42/44 MAPK phosphorylation", "assay": "Immunoblot of IL-6 induced p42/44 MAPK phosphorylation in MM.1S cells", "details": "IL-6 50 ng/mL for 5 min, compound 1 10 μM 90 min, PS-341 5 μM 60 min, FIG. 5", "description": "(§1) MM cells were cultured with PS-341 or compound 1; harvested; washed; and lysed using lysis buffer: 50 mM Tris-HCl (pH 7.4), 150 mM NaCl, 1% NP-40, 5 mM EDTA, 5 mM NaF, 2 mM Na3VO4, 1 mM PMSF, 5 μg/mL leupeptin, and 5 μg/mL aprotinin. For detection of phospho-IκBα, IκBα, phospho-MAPK, phospho-STAT3, ERK2 or alpha-tubulin, cell lysates were subjected SDS-PAGE, transferred to PVDF membrane (Bio-Rad Laboratories, Hercules, Calif.), and immunoblotted with anti-phospho-IκBα, -IκBα, -phospho-MAPK, or -phospho-STAT3 Abs (Cell Signaling, Beverly, Mass.), and anti-alpha-tubulin (Sigma) Abs."}, "Akt phosphorylation": {"test_system": "Akt phosphorylation", "assay": "Phosphorylation of Akt triggered by IL-6 in MM.1S cells", "details": "compound 1 pre-treatment, data not shown"}, "[2]": {"test_system": "IκBα phosphorylation and degradation in MM.1S cells", "assay": "Immunoblot of IκBα phosphorylation and degradation triggered by TNFα in MM.1S cells", "description": "as §1\nInhibition of IκBα phosphorylation by compound 1 was assayed in MM.1S and patient MM cells triggered by TNFα. […] To study the dose-dependent effect of compound 1, MM.1S cells were pre-treated with 1.25-40 μM compound 1 for 90 min, and then stimulated by TNFα (5 ng/mL).\nThe effect of Dex, compound 1, PS-341 and/or IL-6 on TNFα induced phosphorylation of IκBα in MM.1S cells was next examined. […] In contrast compound 1, in the presence or absence of IL-6, inhibits phosphorylation of IκBα. Dex inhibits TNFα-induced degradation of IκBα, whereas IL-6 blocks this effect. Both PS-341 and compound 1 inhibit degradation of IκBα, in the presence or absence of IL-6."}, "[3]": {"test_system": "IκBα phosphorylation and degradation in patient MM cells", "assay": "Immunoblot of IκBα phosphorylation and degradation triggered by TNFα in patient cells", "details": "10 μM for 90 min, TNFα 5 ng/mL, FIG. 1C", "description": "Dex-sensitive (MM.1S) human MM cell line was kindly provided by Dr. Steven Rosen (Northwestern University, Chicago, Ill.). RPMI8226 and U266 human MM cells were obtained from American Type Culture Collection (Rockville, Md.). All MM cell lines cultured in RPMI-1640 containing 10% fetal bovine serum (FBS, Sigma Chemical Co., St. Louis, Mo.), […], 100 U/mL penicillin (Pen) and 100 μg/mL streptomycin (Strep) (GIBCO, Grand Island, N.Y.). Patient MM cells were purified from patient BM aspirates using RosetteSep separation system (StemCell Technologies, Vancouver, Canada). The purity of MM cells was confirmed by flow cytometry using PE-conjugated anti-CD138 antibody (Beckton Dickinson Co.).\nas §1\nInhibition of IκBα phosphorylation by compound 1 was assayed in MM.1S and patient MM cells triggered by TNFα. […]"}, "IL-6 secretion in BMSCs": {"test_system": "IL-6 secretion in BMSCs", "assay": "IL-6 secretion in BMSC cultures with or without MM.1S cells (ELISA)", "details": "0.4-10 μM, 48 h, dose dependent; FIG. 12A", "excerpt": "BM specimens were obtained from patients with MM. Mononuclear cells (MNCs) separated by Ficoll-Hipaque density sedimentation were used to established long-term BM cultures, as previously described (Uchiyama et al., Blood 82:3712-3720 (1993)). When an adherent cell monolayer had developed, cells were harvested in Hank's Buffered Saline Solution (HBSS) containing 0.25% trypsin and 0.02% EDTA, washed, and collected by centrifugation.\nTo evaluate growth stimulation and signaling in MM cells adherent to BMSCs, 3×10^4 MM.1S cells were cultured in BMSC coated 96-well plates for 48 h, in the presence or absence of compound 1. DNA synthesis was measured as described above. The Duoset ELISA (R&D System) was used to measure IL-6 in supernatants of 48 h cultures of BMSCs with or without MM.1S cells, in the presence or absence of compound 1."}}, "data": [{"smiles": "O=C(Nc1cc(Cl)cc2c1[nH]c1cnccc12)c1cccnc1", "note": "[compound 1, N-(6-chloro-9H-β-carbolin-8-yl)-nicotinamide]", "values": [{"measurement": "inhibitory effect of IL-6 against IMiD3", "setting": "MM.1S cells; compound 1 10 μM, IL-6 20 ng/mL, FIG. 9", "value": "neutralized"}, {"measurement": "protective effect of IL-6 on Dex-induced growth inhibition", "setting": "MM.1S cells; compound 1 0.4-10 μM, Dex 0.1 μM, IL-6 50 ng/mL, FIG. 8C", "value": "abrogated"}, {"measurement": "constitutive and IL-6 induced DNA synthesis in MM.1S cells", "setting": "MM.1S cells; compound 1 1.5-12.5 μM, IL-6 0.5-50 ng/mL, dose dependent, FIG. 8B", "value": "abrogated"}, {"measurement": "effect of compound 1 on Dex inhibition of proliferation", "setting": "MM.1S cells; compound 1 1.5-50 μM with Dex, FIG. 8A", "value": "did not enhance"}, {"measurement": "p42/44 MAPK phosphorylation", "setting": "[1]", "value": "does not inhibit"}, {"measurement": "Phosphorylation of Akt triggered by IL-6", "setting": "Akt phosphorylation", "value": "unaffected"}, {"measurement": "TNFα-induced phosphorylation of IκBα", "setting": "[2]; Dex 1 μM 18 h, PS-341 5 μM 60 min, compound 1 10 μM 90 min, presence or absence of IL-6, TNFα 5 ng/mL 5 min, FIG. 7", "value": "inhibits"}, {"measurement": "TNFα-induced degradation of IκBα", "setting": "[2]; Dex 1 μM 18 h, PS-341 5 μM 60 min, compound 1 10 μM 90 min, TNFα 5 ng/mL 5 min, FIG. 7", "value": "inhibit"}, {"measurement": "phosphorylation and degradation of IκBα", "setting": "[2]; compound 1 pre-treatment 10 μM for 90 min, then TNFα 5 ng/mL, FIG. 1A", "value": "completely blocked"}, {"measurement": "concentration at which phosphorylation of IκBα was completely inhibited", "setting": "[2]; pre-treated with 1.25-40 μM for 90 min, then TNFα 5 ng/mL, FIG. 1B", "value": "≥ 5", "unit": "µM"}, {"measurement": "phosphorylation and degradation of IκBα triggered by TNFα", "setting": "[3]", "value": "inhibited"}, {"measurement": "constitutive secretion of IL-6 in BMSCs", "setting": "IL-6 secretion in BMSCs", "value": "blocks"}, {"measurement": "increased IL-6 secretion triggered by adhesion of MM.1S cells to BMSCs", "setting": "IL-6 secretion in BMSCs", "value": "blocks"}]}]}
